Each structure is given as a SMILES string. Where two headings read alike, the source gives them in different places. Some results are limits rather than exact numbers.

The IC50 is the concentration needed to halve the response being measured. Usually EC50 stands for the midpoint of the concentration-response curve.

Experiment [1] concerns the target SHP-2 full length protein (Homo sapiens (Human), UniProt Q06124). The experiment can be described thus: SHP-2 biochemical DiFMUP pseudosubstrate-fluorogenic assay. As to conditions: 0.2 nM SHP-2, 1 μM IRS-1 activator peptide, 50 μM DiFMUP; read-out: SHP2 IC50. The protocol: SHP-2 Biochemical Assay Materials Recombinant SHP-2 full length protein was generated in house. SHP-2 protein tyrosine phosphatase (PTP) domain protein (Catalog number SPR0217-20 ug), NaCl (Catalog number S6546-1L), and KCl (Catalog number 60142-500 mL) were purchased from Sigma-Aldrich (St. Louis, Mo.). IRS-1_[…](dPEG8)[…] peptide […]) was custom made by AnaSpec (Fremont, Calif.). DiFMUP substrate (Catalog number D6567), EDTA (Catalog number E177-500 mL), DTT (Catalog number P2325), and 384-well black polystyrene non-binding surface (Catalog number 3820) were purchased from Fisher Scientific (Hanover Park, Ill.). HEPES (Catalog number 15630-080) was purchased from Life Technologies (Pleasanton, Calif.), and Tween-20 (Catalog number 95059-250) was purchased from VWR (Radnor, Pa.). Method Inhibition of SHP-2 activity by small molecule inhibitors was monitored by a biochemical DiFMUP pseudosubstrate-fluorogenic assay. […] The reaction mix was added to the 384-well non-binding plate which had been pre-spotted with 1:3 serial diluted compounds from 10,000-0.005 nM, and incubated at room temperature for 90 min. DiFMUP substrate at final concentration of 50 μM was then added to the wells and incubated for additional 30 min at room temperature. The final reaction volume was 20 μl/well. […] The inhibitor dose response curves were generated using normalized IC50 regression curve fitting by in house dose response analysis tools. The wells with DMSO vehicle were used as controls (100% signal). The percent (%) control of SHP-2 compound was calculated as: (Compound well fluorescence counts/DMSO fluorescence counts)×100%.

A further experiment deals with NCI-H358 cells. The experiment in a line: NCI-H358 3D tumor spheroid growth inhibition. As to conditions: 3D spheroids, 7 days, 3D CellTiter Glo, cellular IC50 designated EC50, read-out: H358 EC50. In kind it is cell-based. The source says: SHP-2 Cell Based Assay: […] Materials NCI-H358 cell line was purchased from [NT] number ATCC CRL-5807) (Manassas, Va.). RPMI-1640 (Catalog number 10-040-CM) was from Corning Cellgro (Manassas, Va.), Fetal Bovine Serum (FBS) (Catalog number SH30071.03) was from HyClone (Logan, Utanh), and 100× Penicillin/Streptomycin/L-Glutamine stock (Catalog no. 30-009-CI) and 384-well ULA plates (Catalog number 3830) were from Corning (Fremont, Calif.). Method […] At the day of assay, the cells were trypsinized and seeded at 1000 cells/70 μl/well in 384-well ULA plates and incubated at 37° C. incubator with 5% CO2 to allow spheroids to form. […] The plates were incubated for additional 7 days. Then 35 μl of medium from each well was removed, and replaced with 35 μl of 3D CellTiter Glo reagent from Promega. The wells were mixed by pipetting up and down with Biomek FX for 15 times to induce cell lysis and the plates were incubated at room temperature for additional 10 min to stabilize luminescent signal. The luminescence was then read by Envision. The inhibitor dose response curves were generated using normalized cellular IC50 (designated as EC50 in all FIGURES to distinguish from biochemical IC50s) by in house dose response analyses tools. The wells with DMSO vehicle were used as negative controls (0% inhibition). The % inhibition of SHP-2 compounds was calculated as: 100-[(Compound well luminescence counts/DMSO luminescence counts)×100%].
(ATP-based viability assays read luminescence as a measure of living cells.)

Sequence of SHP-2 full length protein (Q06124 whole entry): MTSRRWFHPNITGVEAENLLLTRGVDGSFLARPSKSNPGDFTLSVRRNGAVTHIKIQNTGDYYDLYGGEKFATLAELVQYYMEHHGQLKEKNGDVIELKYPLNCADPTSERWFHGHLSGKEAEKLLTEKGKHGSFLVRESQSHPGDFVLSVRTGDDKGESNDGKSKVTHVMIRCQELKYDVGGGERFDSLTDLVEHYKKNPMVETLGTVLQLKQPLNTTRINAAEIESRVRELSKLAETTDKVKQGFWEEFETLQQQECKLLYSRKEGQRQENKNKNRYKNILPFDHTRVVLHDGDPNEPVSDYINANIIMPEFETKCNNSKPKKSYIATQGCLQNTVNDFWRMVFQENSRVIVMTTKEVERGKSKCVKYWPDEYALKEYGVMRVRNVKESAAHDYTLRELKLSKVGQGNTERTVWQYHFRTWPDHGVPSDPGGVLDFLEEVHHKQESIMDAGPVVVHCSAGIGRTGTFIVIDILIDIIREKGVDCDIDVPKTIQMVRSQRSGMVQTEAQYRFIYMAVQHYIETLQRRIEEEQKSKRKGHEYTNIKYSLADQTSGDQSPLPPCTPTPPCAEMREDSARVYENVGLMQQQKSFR

`Cc1nc(N2CCC3(CCC[C@H]3N)CC2)n2ccnc2c1-c1cccc(Cl)c1Cl` (single isomer, unassigned) [Example 10]: the IC50 in experiment [1] was 0.052 µM. Further, the EC50 with NCI-H358 cells worked out at 0.97 µM.
For `Cc1nc(N2CCC3(CCC[C@H]3N)CC2)n2ccnc2c1-c1cccc(Cl)c1Cl` (single isomer, unassigned) [Example 11] the same measures were 0.0036 µM and 0.06 µM.
For `Cc1nc(N2CCC3(CC2)CO[C@@H](C)[C@H]3N)n2ccnc2c1-c1cccc(Cl)c1Cl` [Example 1, (3S,4S)-8-(8-(2,3-dichlorophenyl)-7-methylimidazo[1,2-c]pyrimidin-5-yl)-3-methyl-2-oxa-8-azaspiro[4.5]decan-4-amine], the 50% inhibitory concentration (IC50) in experiment [1] is 0.0028 µM. In addition, the EC50 in the experiment on NCI-H358 cells (Homo sapiens, NCI-H358, 168 h) was determined as 0.059 µM.
The corresponding values for `Cc1nc(N2CCC3(CCC[C@H]3N)CC2)n2ccnc2c1-c1cccc2[nH]ccc12` [Example 2, (R)-8-(8-(1H-indol-4-yl)-7-methylimidazo[1,2-c]pyrimidin-5-yl)-8-azaspiro[4.5]decan-1-amine] are 0.047 µM and 0.59 µM.
The corresponding values for `Cc1nc(N2CCC3(CCC[C@H]3N)CC2)n2ccnc2c1-c1ccccc1` [Example 5, (R)-8-(7-methyl-8-phenylimidazo[1,2-c]pyrimidin-5-yl)-8-azaspiro[4.5]decan-1-amine] are 0.09 µM and 0.67 µM.
For `Cc1nc(N2CCC3(CCC[C@H]3N)CC2)n2ccnc2c1-c1cccc(C(F)(F)F)c1` [Example 7, (R)-8-(7-methyl-8-(3-(trifluoromethyl)phenyl)imidazo[1,2-c]pyrimidin-5-yl)-8-azaspiro[4.5]decan-1-amine] the same measures were 1.3 µM and over 12.5 µM.
Take `Cc1nc(N2CCC3(CCC[C@H]3N)CC2)n2ccnc2c1-c1cccc(Cl)c1Cl` [Example 9, (R)-8-(8-(2,3-dichlorophenyl)-7-methylimidazo[1,2-c]pyrimidin-5-yl)-8-azaspiro[4.5]decan-1-amine]: in experiment [1], the IC50 turned out to be 0.0041 µM. Further, the EC50 in the experiment on NCI-H358 cells (Homo sapiens, NCI-H358, 168 h) was 0.12 µM.
The corresponding values for `Cc1nc(N2CCC3(CCC[C@H]3N)CC2)n2ccnc2c1-c1sccc1Cl` [Example 12, (R)-8-(8-(3-chlorothiophen-2-yl)-7-methylimidazo[1,2-c]pyrimidin-5-yl)-8-azaspiro[4.5]decan-1-amine] are 0.09 µM and 0.42 µM.
The corresponding values for `Cc1nc(N2CCC3(CCC[C@H]3N)CC2)n2ccnc2c1-c1cnn(C)c1C` [Example 13, (R)-8-(8-(1,5-dimethyl-1H-pyrazol-4-yl)-7-methylimidazo[1,2-c]pyrimidin-5-yl)-8-azaspiro[4.5]decan-1-amine] are 1 µM and 3.3 µM.
As for `Cc1nc(N2CCC3(CCC[C@H]3N)CC2)n2ccnc2c1-c1cnc2ccccn12` [Example 15, (R)-8-(8-(imidazo[1,2-a]pyridin-3-yl)-7-methylimidazo[1,2-c]pyrimidin-5-yl)-8-azaspiro[4.5]decan-1-amine], the IC50 in experiment [1] came out at 0.35 µM. Also, the concentration giving a half-maximal response (EC50) in the experiment with NCI-H358 cells (Homo sapiens, NCI-H358, 168 h) came to 3.2 µM.
For `Cc1nc(N2CCC3(CCC[C@H]3N)CC2)n2ccnc2c1Sc1ccnc(N)c1Cl` [Example 18, (R)-8-(8-((2-amino-3-chloropyridin-4-yl)thio)-7-methylimidazo[1,2-c]pyrimidin-5-yl)-8-azaspiro[4.5]decan-1-amine] the same measures were 0.0056 µM and 0.075 µM.
For `Cc1nc(N2CCC3(CCC[C@H]3N)CC2)n2ccnc2c1-c1cccc(Cl)c1` [Example 23, (R)-8-(8-(3-chlorophenyl)-7-methylimidazo[1,2-c]pyrimidin-5-yl)-8-azaspiro[4.5]decan-1-amine], the half-maximal inhibitory concentration (IC50) in experiment [1] is 0.16 µM. Also, the concentration for a half-maximal effect (EC50) in the experiment on NCI-H358 cells (Homo sapiens, NCI-H358, 168 h) turned out to be 1.5 µM.
For `Cc1nc(N2CCC3(CCC[C@H]3N)CC2)n2ccnc2c1-c1ccc(Cl)c(Cl)c1` [Example 25, (R)-8-(8-(3,4-dichlorophenyl)-7-methylimidazo[1,2-c]pyrimidin-5-yl)-8-azaspiro[4.5]decan-1-amine], the IC50 in experiment [1] is 0.095 µM. Besides, in the experiment with NCI-H358 cells (Homo sapiens, NCI-H358, 168 h), the concentration for a half-maximal effect (EC50) was found to be 1.5 µM.
For `Cc1nc(N2CCC3(CCC[C@H]3N)CC2)n2ccnc2c1-c1ccc(Cl)cc1Cl` [Example 26, (R)-8-(8-(2,4-dichlorophenyl)-7-methylimidazo[1,2-c]pyrimidin-5-yl)-8-azaspiro[4.5]decan-1-amine] the same measures were 0.025 µM and 0.36 µM.
For the compound `Cc1nc(N2CCC3(CCC[C@H]3N)CC2)n2ccnc2c1-c1ccnc(F)c1Cl` [Example 28, (R)-8-(8-(3-chloro-2-fluoropyridin-4-yl)-7-methylimidazo[1,2-c]pyrimidin-5-yl)-8-azaspiro[4.5]decan-1-amine], the IC50 in experiment [1] turned out to be 0.074 µM. The concentration for a half-maximal effect (EC50) in the experiment on NCI-H358 cells (Homo sapiens, NCI-H358, 168 h) worked out at 0.38 µM.
The corresponding values for `Cc1nc(N2CCC3(CCC[C@H]3N)CC2)n2ccnc2c1-c1ccnc(N)c1Cl` [Example 29, (R)-8-(8-(2-amino-3-chloropyridin-4-yl)-7-methylimidazo[1,2-c]pyrimidin-5-yl)-8-azaspiro[4.5]decan-1-amine] are 1.3 µM and 5.5 µM.
`C[C@@H]1OCC2(CCN(c3ncc(Sc4ccnc(N)c4Cl)c4nccn34)CC2)[C@@H]1N` [Example 31, (3S,4S)-8-(8-((2-amino-3-chloropyridin-4-yl)thio)imidazo[1,2-c]pyrimidin-5-yl)-3-methyl-2-oxa-8-azaspiro[4.5]decan-4-amine]: the IC50 in experiment [1] turned out to be 0.005 µM. Further, the EC50 with NCI-H358 cells (Homo sapiens, NCI-H358, 168 h) is 0.053 µM.
For `Cc1nc(N2CCC3(CC2)C[C@@H](O)C[C@H]3N)n2ccnc2c1-c1cccc(Cl)c1Cl` [Example 33, (2R,4R)-4-amino-8-(8-(2,3-dichlorophenyl)-7-methylimidazo[1,2-c]pyrimidin-5-yl)-8-azaspiro[4.5]decan-2-ol] the same measures were 0.0031 µM and 0.032 µM.
For the compound `N[C@@H]1C[C@H](O)CC12CCN(c1ncc(Sc3cccc(Cl)c3Cl)c3nccn13)CC2` [Example 35, (2R,4R)-4-amino-8-(8-((2,3-dichlorophenyl)thio)imidazo[1,2-c]pyrimidin-5-yl)-8-azaspiro[4.5]decan-2-ol], in experiment [1], the half-maximal inhibitory concentration (IC50) came out at 0.0012 µM. In addition, the EC50 with NCI-H358 cells (Homo sapiens, NCI-H358, 168 h) is 0.032 µM.
Consider `CC1(N)CCN(c2ncc(Sc3ccnc(N)c3Cl)c3nccn23)CC1` [Example 36], for which the EC50 in the experiment on NCI-H358 cells (Homo sapiens, NCI-H358, 168 h) was over 12.5 µM.
In the case of `C[C@@H]1OCC2(CCN(c3ncc(Sc4cc(N)ncc4C(F)(F)F)c4nccn34)CC2)[C@@H]1N` [Example 38, (3S,4S)-8-(8-((2-amino-5-(trifluoromethyl)pyridin-4-yl)thio)imidazo[1,2-c]pyrimidin-5-yl)-3-methyl-2-oxa-8-azaspiro[4.5]decan-4-amine], the IC50 in experiment [1] worked out at 0.0059 µM. The EC50 in the experiment on NCI-H358 cells (Homo sapiens, NCI-H358, 168 h) came to 0.059 µM.
Consider `C[C@@H]1OCC2(CCN(c3ncc(Sc4cc(N)ncc4C(F)(F)F)c4ncc(Cl)n34)CC2)[C@@H]1N` [Example 39], for which the half-maximal effective concentration (EC50) in the experiment on NCI-H358 cells (Homo sapiens, NCI-H358, 168 h) turned out to be 0.57 µM.
The same measure, in the same setting: with `N[C@@H]1CCCC12CCN(c1ncc(Sc3cccc4ncccc34)c3nccn13)CC2` [Example 84] the figure was 0.24 µM; with `Cc1nc(N2CCC3(CC2)Cc2cc(F)ccc2[C@H]3N)n2ccnc2c1-c1cccc(Cl)c1Cl` [Example 133, (S)-1′-(8-(2,3-dichlorophenyl)-7-methylimidazo[1,2-c]pyrimidin-5-yl)-5-fluoro-1,3-dihydrospiro[indene-2,4′-piperidin]-1-amine], 0.021 µM; with `Nc1cccc(Sc2cnc(N3CCC4(CC3)Cc3ccccc3[C@H]4N)n3ccnc23)c1Cl` [Example 137, (S)-1′-(8-((3-amino-2-chlorophenyl)thio)imidazo[1,2-c]pyrimidin-5-yl)-1,3-dihydrospiro[indene-2,4′-piperidin]-1-amine], 0.012 µM.

Values taken from patent US11179397B2, “Imidazopyrimidine derivatives” (Gilead Sciences, Inc., priority 2018, dated 2021).
